The values that follow come from patent US20190263796A1, “LIM KINASE INHIBITORS, PHARMACEUTICAL COMPOSITION AND METHOD OF USE IN LIMK-MEDIATED DISEASES” (CELLIPSE, priority 2016, published 2019).

Where only a bound is given, the exact number is not on record here.

Test [1] has as its system Phospho-Ser3-Cofilin/Total Cofilin. The test can be described thus: Western blot cofilin phosphorylation, Kasumi-1. The class given is cell-based. The note with it: Homo sapiens; Kasumi-1 cells; 2 h. The protocol:
Kasumi-1 cell line was originally purchased from the American Type Culture Collection (ATCC). Kasumi-1 cells are cultured in RPMI 1640 20% (v/v) FBS supplemented with 100 U/mL^−1 penicillin, 0.1 mg·mL^−1 streptomycin (PAN Biotech P06-07100). Cells were maintained at 37° C. with 5% CO2.
In a 6 wells plate (Falcon 353046), 2·10^6 cells in 1.5 mL medium are treated for 2 h with compounds. Cells are then collected and cell lysis is performed at 4° C. using RIPA buffer supplemented with protease inhibitors cocktail (Sigma-Aldrich P8340) and phosphatase inhibitors cocktail (Sigma-Aldrich P5726). Following centrifugation 30 min 15000 g 4° C., supernatants are mixed with Laemmli buffer and denaturation is performed by heating 5 min 95° C. 10 μL of samples are subjected to electrophoresis on 15% SDS-PAGE. After electro-transfer (Mini Transblot, Bio-Rad), the PVDF membrane (Merck-Millipore Immobilon P IPVH00010) is blocked with Tris Buffered Saline, pH 7.4 (TBS) with 0.1% Tween 20 and 5% BSA for 1 h RT under agitation. […] For each concentration of compound, ratio between phosphorylated cofilin and total cofilin is determined. This ratio is then expressed as percentage of control ratio (i.e., ratio from DMSO treated cells). IC50 Phospho-Ser3-Cofilin/Total Cofilin is then determined.
In general terms: In western blotting, separated proteins are transferred to a membrane and probed.

Test [2] deals with T1, JAK2(h) (Homo sapiens, UniProt O60674).
T1 construct: purchased Merck-Millipore (KinaseProfiler panel service)
The test can be described thus: KinaseProfiler panel: JAK2(h). Conditions: residual activity, 5 μM inhibitor, Km ATP. The class given is biochemical. The procedure: (§1) Kinase selectivity was performed on a panel of 58 recombinant protein kinases. The assays were performed in the presence of 5 μM inhibitor at the respective Km ATP for each kinase, using the KinaseProfiler panel service (Merck-Millipore). Residual activity measured in the presence of […] inhibitor is expressed as the percent of activity determined in the absence of inhibitor.

Test [3] has as its target T2, BTK(h) (Homo sapiens, UniProt Q06187).
T2 construct: purchased Merck-Millipore (KinaseProfiler panel service)
The experiment in a line: KinaseProfiler panel: BTK(h). It counts as biochemical. The note with it: residual activity, 5 μM inhibitor, Km ATP. The protocol:
as §1

The target of test [4] is T3, Plk3(h) (Homo sapiens, UniProt Q9H4B4).
T3 construct: purchased Merck-Millipore (KinaseProfiler panel service)
The experiment in a line: KinaseProfiler panel: Plk3(h). The class given is biochemical. The note with it: residual activity, 5 μM inhibitor, Km ATP. The procedure:
as §1

Test [5] deals with T4, IKKα(h) (Homo sapiens, UniProt O15111).
T4 construct: purchased Merck-Millipore (KinaseProfiler panel service)
The experiment in a line: KinaseProfiler panel: IKKα(h). Conditions: residual activity, 5 μM inhibitor, Km ATP. The class given is biochemical. The protocol:
as §1

In test [6] the target is T5, cKit(D816H)(h) (Homo sapiens, UniProt P10721, D816H).
T5 construct: purchased Merck-Millipore (KinaseProfiler panel service)
The test can be described thus: KinaseProfiler panel: cKit(D816H)(h). It counts as biochemical. Conditions: residual activity, 5 μM inhibitor, Km ATP. The procedure:
as §1

The target of test [7] is T6, MRCKα(h) (Homo sapiens, UniProt Q5VT25).
T6 construct: purchased Merck-Millipore (KinaseProfiler panel service)
The experiment in a line: KinaseProfiler panel: MRCKα(h). The class given is biochemical. The note with it: residual activity, 5 μM inhibitor, Km ATP. The procedure:
as §1

The target of test [8] is T7, PAK2(h) (Homo sapiens, UniProt Q13177).
T7 construct: purchased Merck-Millipore (KinaseProfiler panel service)
The experiment in a line: KinaseProfiler panel: PAK2(h). The class given is biochemical. The note with it: residual activity, 5 μM inhibitor, Km ATP. The procedure:
as §1

For test [9], the target named is T8, A-Raf(h) (Homo sapiens, UniProt P10398).
T8 construct: purchased Merck-Millipore (KinaseProfiler panel service)
The experiment in a line: KinaseProfiler panel: A-Raf(h). It counts as biochemical. Conditions: residual activity, 5 μM inhibitor, Km ATP. The procedure: as §1

Test [10] addresses LIMK1(h) (Homo sapiens, UniProt P53667). The test can be described thus: KinaseProfiler panel: LIMK1(h). The class given is biochemical. Also on record: purchased Merck-Millipore (KinaseProfiler panel service). Conditions: residual activity, 5 μM inhibitor, Km ATP. The protocol:
as §1

Test [11] has as its target T9, PAK5(h) (Homo sapiens, UniProt Q9P286).
T9 construct: purchased Merck-Millipore (KinaseProfiler panel service)
The test can be described thus: KinaseProfiler panel: PAK5(h). The class given is biochemical. The note with it: residual activity, 5 μM inhibitor, Km ATP. The protocol: as §1

Test [12] addresses T10, MKK4(m) (Mus musculus, UniProt P47809).
T10 construct: purchased Merck-Millipore (KinaseProfiler panel service)
The experiment in a line: KinaseProfiler panel: MKK4(m). The note with it: residual activity, 5 μM inhibitor, Km ATP. It counts as biochemical. The procedure:
as §1

The target of test [13] is T11, cKit(V560G)(h) (Homo sapiens, UniProt P10721, V560G).
T11 construct: purchased Merck-Millipore (KinaseProfiler panel service)
The experiment in a line: KinaseProfiler panel: cKit(V560G)(h). It counts as biochemical. The note with it: residual activity, 5 μM inhibitor, Km ATP. The protocol:
as §1

The target in test [14] is T12, GSK3β(h) (Homo sapiens, UniProt P49841).
T12 construct: purchased Merck-Millipore (KinaseProfiler panel service)
The experiment in a line: KinaseProfiler panel: GSK3β(h). It counts as biochemical. The note with it: residual activity, 5 μM inhibitor, Km ATP. The procedure:
as §1

The target of test [15] is T13, Aurora-A(h) (Homo sapiens, UniProt O14965).
T13 construct: purchased Merck-Millipore (KinaseProfiler panel service)
The test can be described thus: KinaseProfiler panel: Aurora-A(h). It counts as biochemical. The note with it: residual activity, 5 μM inhibitor, Km ATP. The protocol: as §1

The target in test [16] is T14, recombinant human LIMK2 fragment 1-638 (Homo sapiens, UniProt P53671).
T14 construct: recombinant human LIMK2 fragment 1-638; 6His (N); purchased Carna Biosciences 09-106
The experiment in a line: LIMK2 kinase assay (Compound 1), anti-phospho-Ser3-cofilin detection. The class given is biochemical. The note with it: 360 μM ATP; GST-cofilin 1 substrate; chemiluminescence detection.
Protocol: Compounds were tested in a LIMK2 assay performed in a final volume of 12.5 μl containing 1.5 μl of compound or equivalent amount of DMSO as control, 1 μl (6.25 ng) of N-terminal 6His-tagged recombinant human LIMK2 fragment 1-638 (Carna Biosciences #09-106, in 20 mM MOPS pH=7.0, 1 mM EDTA, 0.01% NP-40, 5% glycerol, 0.1% 2-mercaptoethanol, 1 mg·mL^−1 Bovine Serum Albumin) and a mixture containing 8 mM MOPS pH=7.0, 200 μM EDTA, 110 μM of recombinant GST-cofilin 1, 10 mM MgCl2, and 360 μM ATP. Assays were performed at 30° C. for 10 min before termination by the addition of 40 μl of Laemmli buffer. Samples are then diluted into 1500 μL H2O and 100 μL are then diluted with 200 μL TBS. 5 μL are then spotted on a PVDF membrane (Merck-Millipore Immobilon P IPVH00010). After 20 min incubation RT, membrane was blocked with TBS, 0.1% Tween 20 and 5% BSA for 1 h RT under agitation. The membrane was rinsed 3 times 10 min RT under agitation with TBS, 0.1% Tween-20 (TBST) and then 1 h RT with anti-phospho-Ser3-cofilin (Cell Signaling Technology #3313, 1/1000 dilution) antibody diluted in TBS, 0.1% Tween 20 and 1% BSA. The membrane is then rinsed 3 times 10 min RT under agitation in TBST and incubated for 1 hour with anti-rabbit secondary antibody, horseradish peroxidase conjugated (Jackson Immunoresearch #711-036-152) under agitation at room temperature. […] IC50 LIMK2 is then determined.

The target of test [17] is T15, Aurora-B(h) (Homo sapiens, UniProt Q96GD4).
T15 construct: purchased Merck-Millipore (KinaseProfiler panel service)
The test can be described thus: KinaseProfiler panel: Aurora-B(h). It counts as biochemical. The note with it: residual activity, 5 μM inhibitor, Km ATP. The protocol:
as §1

The target in test [18] is T16, TrkB(h) (Homo sapiens, UniProt Q16620).
T16 construct: purchased Merck-Millipore (KinaseProfiler panel service)
The experiment in a line: KinaseProfiler panel: TrkB(h). The class given is biochemical. Conditions: residual activity, 5 μM inhibitor, Km ATP. The procedure:
as §1

For test [19], the target named is T17, MRCKβ(h) (Homo sapiens, UniProt Q9Y5S2).
T17 construct: purchased Merck-Millipore (KinaseProfiler panel service)
The experiment in a line: KinaseProfiler panel: MRCKβ(h). It counts as biochemical. The note with it: residual activity, 5 μM inhibitor, Km ATP. The protocol: as §1

Test [20] has as its target T18, PKBα(h) (Homo sapiens, UniProt P31749).
T18 construct: purchased Merck-Millipore (KinaseProfiler panel service)
The test can be described thus: KinaseProfiler panel: PKBα(h). The class given is biochemical. The note with it: residual activity, 5 μM inhibitor, Km ATP. The procedure:
as §1

Test [21] addresses T19, TrkC(h) (Homo sapiens, UniProt Q16288).
T19 construct: purchased Merck-Millipore (KinaseProfiler panel service)
The test can be described thus: KinaseProfiler panel: TrkC(h). The class given is biochemical. The note with it: residual activity, 5 μM inhibitor, Km ATP. The procedure: as §1

Test [22] addresses T20, PKCα(h) (Homo sapiens, UniProt P17252).
T20 construct: purchased Merck-Millipore (KinaseProfiler panel service)
The test can be described thus: KinaseProfiler panel: PKCα(h). The class given is biochemical. Conditions: residual activity, 5 μM inhibitor, Km ATP. The protocol: as §1

In test [23] the target is T21, c-RAF(h) (Homo sapiens, UniProt P04049).
T21 construct: purchased Merck-Millipore (KinaseProfiler panel service)
The test can be described thus: KinaseProfiler panel: c-RAF(h). The class given is biochemical. Conditions: residual activity, 5 μM inhibitor, Km ATP. The procedure: as §1

Test [24] concerns the target T22, Flt1(h) (Homo sapiens, UniProt P17948).
T22 construct: purchased Merck-Millipore (KinaseProfiler panel service)
The experiment in a line: KinaseProfiler panel: Flt1(h). The note with it: residual activity, 5 μM inhibitor, Km ATP. It counts as biochemical. The procedure:
as §1

The target in test [25] is T23, cKit(D816V)(h) (Homo sapiens, UniProt P10721, D816V).
T23 construct: purchased Merck-Millipore (KinaseProfiler panel service)
The test can be described thus: KinaseProfiler panel: cKit(D816V)(h). The class given is biochemical. The note with it: residual activity, 5 μM inhibitor, Km ATP. The procedure:
as §1

T10 sequence (P47809 whole entry): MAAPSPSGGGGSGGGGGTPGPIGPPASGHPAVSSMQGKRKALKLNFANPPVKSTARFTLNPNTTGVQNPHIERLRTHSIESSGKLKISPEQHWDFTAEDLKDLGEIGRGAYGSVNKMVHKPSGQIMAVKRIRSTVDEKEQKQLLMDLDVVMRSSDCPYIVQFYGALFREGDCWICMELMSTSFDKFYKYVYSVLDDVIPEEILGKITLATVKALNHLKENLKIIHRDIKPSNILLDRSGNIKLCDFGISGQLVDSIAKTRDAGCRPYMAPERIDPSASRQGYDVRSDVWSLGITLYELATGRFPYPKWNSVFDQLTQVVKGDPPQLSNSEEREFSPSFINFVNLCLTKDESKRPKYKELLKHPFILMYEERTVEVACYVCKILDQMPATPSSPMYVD
T14 sequence (P53671 whole entry, the tested form may be a part): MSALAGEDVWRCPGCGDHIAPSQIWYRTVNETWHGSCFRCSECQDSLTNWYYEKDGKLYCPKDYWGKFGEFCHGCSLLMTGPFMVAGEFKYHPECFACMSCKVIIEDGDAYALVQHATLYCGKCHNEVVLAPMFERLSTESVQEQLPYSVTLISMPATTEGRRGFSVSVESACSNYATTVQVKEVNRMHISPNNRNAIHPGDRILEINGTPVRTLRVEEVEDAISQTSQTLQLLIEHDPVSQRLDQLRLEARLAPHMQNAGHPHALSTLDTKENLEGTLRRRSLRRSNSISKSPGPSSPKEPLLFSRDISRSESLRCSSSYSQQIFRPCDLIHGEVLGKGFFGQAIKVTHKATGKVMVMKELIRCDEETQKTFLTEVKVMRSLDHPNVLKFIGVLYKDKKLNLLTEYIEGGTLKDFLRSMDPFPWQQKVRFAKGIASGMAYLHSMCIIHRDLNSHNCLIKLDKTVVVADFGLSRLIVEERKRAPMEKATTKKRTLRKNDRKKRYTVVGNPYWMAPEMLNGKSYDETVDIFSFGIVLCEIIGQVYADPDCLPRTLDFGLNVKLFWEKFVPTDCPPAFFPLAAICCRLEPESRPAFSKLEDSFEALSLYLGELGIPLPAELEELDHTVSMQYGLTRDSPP
T5 sequence (P10721 26-976 D816H): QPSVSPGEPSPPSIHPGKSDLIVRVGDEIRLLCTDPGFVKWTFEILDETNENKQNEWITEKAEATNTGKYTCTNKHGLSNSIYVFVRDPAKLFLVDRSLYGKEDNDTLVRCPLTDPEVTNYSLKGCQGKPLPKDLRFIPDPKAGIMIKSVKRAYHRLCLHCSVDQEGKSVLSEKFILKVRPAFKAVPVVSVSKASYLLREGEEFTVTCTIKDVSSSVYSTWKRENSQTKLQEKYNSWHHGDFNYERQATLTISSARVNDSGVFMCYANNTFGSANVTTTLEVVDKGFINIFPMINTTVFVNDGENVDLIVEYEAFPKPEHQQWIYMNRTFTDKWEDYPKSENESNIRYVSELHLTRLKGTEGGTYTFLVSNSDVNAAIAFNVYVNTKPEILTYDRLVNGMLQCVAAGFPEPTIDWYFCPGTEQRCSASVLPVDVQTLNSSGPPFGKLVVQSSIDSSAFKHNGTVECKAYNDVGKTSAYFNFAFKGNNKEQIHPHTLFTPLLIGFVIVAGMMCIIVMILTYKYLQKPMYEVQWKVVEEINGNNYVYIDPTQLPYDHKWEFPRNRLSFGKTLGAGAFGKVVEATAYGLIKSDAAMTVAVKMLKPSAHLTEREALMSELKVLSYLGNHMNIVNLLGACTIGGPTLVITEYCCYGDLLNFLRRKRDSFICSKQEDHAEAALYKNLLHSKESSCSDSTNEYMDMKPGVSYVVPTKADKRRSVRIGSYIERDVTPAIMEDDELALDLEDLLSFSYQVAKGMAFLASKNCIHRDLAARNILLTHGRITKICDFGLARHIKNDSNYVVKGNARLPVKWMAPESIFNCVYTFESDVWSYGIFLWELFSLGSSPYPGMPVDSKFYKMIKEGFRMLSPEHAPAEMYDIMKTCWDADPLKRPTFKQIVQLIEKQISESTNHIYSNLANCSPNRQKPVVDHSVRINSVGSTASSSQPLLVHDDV
T23 sequence (P10721 26-976 D816V): as the sequence (P10721 26-976 D816H) above, with H791V counted along it
T16 sequence (Q16620 32-822): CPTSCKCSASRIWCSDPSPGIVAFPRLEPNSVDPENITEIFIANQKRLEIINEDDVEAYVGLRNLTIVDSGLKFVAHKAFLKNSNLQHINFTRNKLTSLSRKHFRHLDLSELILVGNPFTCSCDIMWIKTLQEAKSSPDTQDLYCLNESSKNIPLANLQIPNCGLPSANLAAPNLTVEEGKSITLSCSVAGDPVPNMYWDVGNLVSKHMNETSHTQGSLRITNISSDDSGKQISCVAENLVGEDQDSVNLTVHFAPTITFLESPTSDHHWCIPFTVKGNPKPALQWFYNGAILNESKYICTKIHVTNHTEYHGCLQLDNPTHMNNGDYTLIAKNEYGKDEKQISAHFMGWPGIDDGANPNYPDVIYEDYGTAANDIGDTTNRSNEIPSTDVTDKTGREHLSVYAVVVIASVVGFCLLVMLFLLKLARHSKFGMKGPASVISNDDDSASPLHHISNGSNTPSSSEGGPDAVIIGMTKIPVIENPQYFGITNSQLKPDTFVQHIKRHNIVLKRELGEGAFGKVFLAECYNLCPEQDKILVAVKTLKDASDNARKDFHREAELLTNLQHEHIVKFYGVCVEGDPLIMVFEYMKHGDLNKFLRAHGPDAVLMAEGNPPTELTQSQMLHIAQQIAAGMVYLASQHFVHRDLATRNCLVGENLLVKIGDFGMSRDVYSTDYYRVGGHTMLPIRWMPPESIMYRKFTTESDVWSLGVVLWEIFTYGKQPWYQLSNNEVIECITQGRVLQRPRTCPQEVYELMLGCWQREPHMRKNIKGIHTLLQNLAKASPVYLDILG
T13 sequence (O14965 whole entry): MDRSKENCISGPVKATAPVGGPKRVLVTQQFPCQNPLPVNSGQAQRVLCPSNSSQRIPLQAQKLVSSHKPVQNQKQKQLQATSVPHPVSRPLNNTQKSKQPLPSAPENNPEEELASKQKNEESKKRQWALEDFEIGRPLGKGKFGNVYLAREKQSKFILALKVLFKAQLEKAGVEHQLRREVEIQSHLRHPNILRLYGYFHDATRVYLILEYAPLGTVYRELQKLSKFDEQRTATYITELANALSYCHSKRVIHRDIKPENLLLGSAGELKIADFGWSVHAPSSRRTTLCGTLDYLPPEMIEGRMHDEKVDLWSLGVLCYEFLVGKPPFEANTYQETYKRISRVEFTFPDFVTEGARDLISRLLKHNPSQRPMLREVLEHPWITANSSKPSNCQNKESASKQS
T15 sequence (Q96GD4 whole entry): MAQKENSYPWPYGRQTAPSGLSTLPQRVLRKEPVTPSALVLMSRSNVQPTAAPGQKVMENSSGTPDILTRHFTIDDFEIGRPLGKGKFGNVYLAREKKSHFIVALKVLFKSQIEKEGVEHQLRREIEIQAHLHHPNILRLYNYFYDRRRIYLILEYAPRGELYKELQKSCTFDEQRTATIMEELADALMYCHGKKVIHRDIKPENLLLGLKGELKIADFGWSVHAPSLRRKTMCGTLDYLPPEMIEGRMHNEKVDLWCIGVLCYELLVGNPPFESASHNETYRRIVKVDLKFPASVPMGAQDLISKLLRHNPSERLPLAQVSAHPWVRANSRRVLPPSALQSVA
T3 sequence (Q9H4B4 whole entry): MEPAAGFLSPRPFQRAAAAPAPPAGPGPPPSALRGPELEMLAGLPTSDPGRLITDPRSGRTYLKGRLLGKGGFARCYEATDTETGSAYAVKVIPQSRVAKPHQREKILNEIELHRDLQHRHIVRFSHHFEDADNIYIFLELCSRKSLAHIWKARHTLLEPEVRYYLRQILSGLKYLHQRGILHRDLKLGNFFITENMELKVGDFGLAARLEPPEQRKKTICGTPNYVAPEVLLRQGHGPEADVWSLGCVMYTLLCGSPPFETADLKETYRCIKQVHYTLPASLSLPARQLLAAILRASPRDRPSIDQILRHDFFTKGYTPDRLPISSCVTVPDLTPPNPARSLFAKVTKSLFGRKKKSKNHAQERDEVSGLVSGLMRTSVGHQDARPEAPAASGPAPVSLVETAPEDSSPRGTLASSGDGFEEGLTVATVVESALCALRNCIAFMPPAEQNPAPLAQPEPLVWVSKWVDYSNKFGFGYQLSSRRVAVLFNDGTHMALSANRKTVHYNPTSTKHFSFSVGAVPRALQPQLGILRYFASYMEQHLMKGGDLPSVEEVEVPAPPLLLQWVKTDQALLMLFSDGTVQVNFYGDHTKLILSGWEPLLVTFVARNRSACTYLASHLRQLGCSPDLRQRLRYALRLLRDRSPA
T4 sequence (O15111 whole entry): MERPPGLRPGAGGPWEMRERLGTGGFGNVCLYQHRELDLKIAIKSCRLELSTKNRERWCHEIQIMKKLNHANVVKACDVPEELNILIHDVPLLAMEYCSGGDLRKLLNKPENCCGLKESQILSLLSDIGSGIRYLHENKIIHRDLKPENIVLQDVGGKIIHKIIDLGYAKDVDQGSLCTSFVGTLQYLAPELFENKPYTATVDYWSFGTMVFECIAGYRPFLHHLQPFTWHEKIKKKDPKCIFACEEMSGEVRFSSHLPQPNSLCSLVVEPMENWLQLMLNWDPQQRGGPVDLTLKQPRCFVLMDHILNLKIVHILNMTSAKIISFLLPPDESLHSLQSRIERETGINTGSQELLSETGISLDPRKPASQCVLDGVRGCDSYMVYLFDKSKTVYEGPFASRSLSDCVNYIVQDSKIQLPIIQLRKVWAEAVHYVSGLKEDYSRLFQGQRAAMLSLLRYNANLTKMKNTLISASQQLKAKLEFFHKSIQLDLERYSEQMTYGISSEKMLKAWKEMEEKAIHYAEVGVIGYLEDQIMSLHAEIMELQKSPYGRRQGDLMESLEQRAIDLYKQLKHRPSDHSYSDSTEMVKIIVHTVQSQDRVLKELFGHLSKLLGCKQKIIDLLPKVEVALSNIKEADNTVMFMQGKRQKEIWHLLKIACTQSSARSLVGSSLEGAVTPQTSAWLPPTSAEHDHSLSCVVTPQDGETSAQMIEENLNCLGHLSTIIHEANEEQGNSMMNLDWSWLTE
T11 sequence (P10721 26-976 V560G): as the sequence (P10721 26-976 D816H) above, with V535G, H791D counted along it

By IC50 is commonly meant the concentration that gives 50% inhibition. For `O=S(=O)(Nc1cccc(-c2nc(CCO)sc2-c2ccnc(Nc3ccccc3)n2)c1F)c1c(F)cccc1F` [8 (Na)], the IC50 in [1] was below 200 nM.

Turning to `CC(C)(C)c1nc(-c2cccc(NS(=O)(=O)c3c(F)cccc3F)c2F)c(-c2ccnc(Nc3ccccc3)n2)s1` [Compound 1, N-(3-(2-(tert-butyl)-5-(2-(phenylamino)pyrimidin-4-yl)thiazol-4-yl)-2-fluorophenyl)-2,6-difluorobenzenesulfonamide], the activity at 5 µM in test [2] is at least 50%; in [3], 10 to 50%; in test [4], at least 50%; in test [5] it was at least 50%; in [6], 10 to 50%; in test [7], at least 50%. Moreover, the activity at 5 µM in [8] is at least 50%; in [9], at least 50%; in test [10], below 3%; in test [11], at least 50%; in [12] it was at least 50%; in test [13], 10 to 50%. The activity at 5 µM was at least 50% in [14]; at least 50% in test [15]; 10 to 50% in test [17]; at least 50% in [18]; at least 50% in test [19]; at least 50% in test [20]. Besides, the activity at 5 µM was at least 50% in test [21]; at least 50% in test [22]; 3 to 10% in [23]; 10 to 50% in [24]; at least 50% in [25]. The IC50 in test [16] was 100 to 500 nM.
